Experimental data: patent publication US11440887B2, “Substituted 1,2,3,4-tetrahydroquinolines as inhibitors of repair enzyme 8-oxoguanine deoxyribonucleic acid glycosylase activity” (The Board of Trustees of the Leland Stanford Junior …, priority 2017, dated 2022)

Target: OGG1 (Homo sapiens (Human), UniProt O15527)
Test: OGG1 inhibitor assay with fluorogenic OGR1 probe (base excision, initial rates)
Format: biochemical
Conditions: for Enzyme activity, % of control at 2 μM: 2 μM compound; for Enzyme activity, % of control at 2 μM / Enzyme activity, % of control at 20 μM / Enzyme activity, % of control at 200 nM: ratio of initial rate slope (first 12 min) to no-compound control; for Enzyme activity, % of control at 20 μM: 20 μM compound; for IC50: initial rates method
Experimental: Methods: Synthesized compounds and hOGG1 (100 nM) were incubated in NEBuffer 4 (1×) with BSA (1×) at 37° C. (15 min) in 100 μL reaction volumes in a black 96-well plate. (See, e.g., Edwards, S. K., et al., ChemBioChem 2015, 16, 1637-1646, the disclosure of which is incorporated herein by reference.) After that, OGR1 (1.2 μM) was added to the reaction mixture. Fluorescence at 460 nm was measured on a Thermo Fluoroskan Ascent FL fluorescence plate reader (λex=355 nm). The slope of initial rate (12 min) was calculated, and % of control was used for inhibition activity. BSA, hOGG1 and NEBuffer 4 were purchased from New England Biolabs and used. UltraPure Distilled Water (Invitrogen) was purchased and used for the assay.

Sequence of OGG1 (O15527 whole entry): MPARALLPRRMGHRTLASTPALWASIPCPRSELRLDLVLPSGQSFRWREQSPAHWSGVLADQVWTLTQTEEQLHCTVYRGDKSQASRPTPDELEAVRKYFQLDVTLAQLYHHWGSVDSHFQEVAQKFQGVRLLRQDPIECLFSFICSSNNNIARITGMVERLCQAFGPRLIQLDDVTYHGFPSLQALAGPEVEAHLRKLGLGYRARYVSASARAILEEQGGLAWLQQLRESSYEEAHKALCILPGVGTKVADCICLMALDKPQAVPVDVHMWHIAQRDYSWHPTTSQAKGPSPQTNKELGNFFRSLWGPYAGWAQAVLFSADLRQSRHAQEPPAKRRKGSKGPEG

SMILES	Enzyme activity, % of control at 2 μM	Enzyme activity, % of control at 20 μM	Enzyme activity, % of control at 200 nM (200 nM compound)	IC50 [nM]	inhibition of activity at 200 nM (200 nM compound)
CCOc1ccc(S(=O)(=O)Nc2ccc3c(c2)N(C(=O)NC2CC2)CCC3)cc1 [Compound 10]	87 % of control	77 % of control	–	–	–
O=C(C1CC1)N1CCCc2ccc(NS(=O)(=O)c3ccc4oc5ccccc5c4c3)cc21 [Compound 29]	82 % of control	71 % of control	–	–	–
O=C(C1CC1)N1CCCc2ccc(NS(=O)(=O)c3ccc(N4CCOCC4)cc3)cc21 [Compound 32]	76 % of control	–	84 % of control	–	–
CNC(=O)c1cccc(-c2ccc(S(=O)(=O)Nc3ccc4c(c3)N(C(=O)C3CC3)CCC4)cc2)c1 [Compound 40]	–	–	48 % of control	–	–
CCOc1ccc(S(=O)(=O)Nc2ccc3c(c2)N(C(=O)C2CCC2)CCC3)cc1 [Compound 8]	69 % of control	33 % of control	–	–	–
CCOc1ccc(NC(=O)Nc2ccc3c(c2)N(C(=O)C2CC2)CCC3)cc1 [Compound 21]	≥100 % of control	≥100 % of control	–	–	–
CCCOc1ccc(S(=O)(=O)Nc2ccc3c(c2)N(C(=O)C2CC2)CCC3)cc1 [Compound 24]	19 % of control	–	95 % of control	–	–
CCOc1ccc(S(=O)(=O)Nc2ccc3c(c2)N(C(=O)C(C)(C)C)CCC3)cc1 [Compound 6]	–	≥100 % of control	–	–	–
O=C(C1CC1)N1CCCc2ccc(NS(=O)(=O)c3ccc(Oc4ccccc4)cc3)cc21 [Compound 28]	41 ± 2.0 % of control	8.3 % of control	≥100 % of control	1500	–
CSc1ccc(S(=O)(=O)Nc2ccc3c(c2)N(C(=O)C2CC2)CCC3)cc1 [Compound 26]	53 % of control	3.6 % of control	75 % of control	–	–
CCOc1ccc(S(=O)(=O)Nc2ccc3c(c2)N(C(=O)C2CC2)CCC3)cc1 [Compound 7]	41 ± 1.7 % of control	5.8 ± 1.9 % of control	82 ± 12 % of control	1100	–
CCOc1ccc(S(=O)(=O)Nc2cccc(NC(C)=O)c2)cc1 [Compound 12]	96 % of control	70 % of control	–	–	–
O=C(C1CC1)N1CCCc2ccc(NS(=O)(=O)c3ccc(C4CCCCC4)cc3)cc21 [Compound 31]	25 % of control	–	87 % of control	–	–
O=C(C1CC1)N1CCCc2ccc(NS(=O)(=O)c3ccc(-n4cccn4)cc3)cc21 [Compound 33]	45 ± 1.3 % of control	14 ± 3.2 % of control	81 % of control	–	–
O=C(C1CC1)N1CCCc2ccc(NS(=O)(=O)c3ccc(-c4ccccc4)cc3)cc21 [Compound 30]	29 ± 7.0 % of control	–	90 ± 6.2 % of control	–	–
COc1cccc(-c2ccc(S(=O)(=O)Nc3ccc4c(c3)N(C(=O)C3CC3)CCC4)cc2)c1 [Compound 37]	13 % of control	–	67 % of control	–	–
CN(C)c1cccc(-c2ccc(S(=O)(=O)Nc3ccc4c(c3)N(C(=O)C3CC3)CCC4)cc2)c1 [Compound 38]	–	–	70 % of control	–	–
CCOc1ccc(S(=O)(=O)Nc2cc3c(cc2OC)CCCN3C(=O)C2CC2)cc1 [Compound 16]	≥100 % of control	93 % of control	–	–	–
CCOc1ccc(S(=O)(=O)Nc2ccc3c(c2)N(C(=O)CC)CC3)cc1 [Compound 13]	95 % of control	≥100 % of control	–	–	–
CCOc1ccc(S(=O)(=O)Nc2ccc3c(c2)N(C(=O)CC)CCC3)cc1 [Compound 2]	51 ± 1.4 % of control	3.7 ± 0.83 % of control	–	–	–

SMILES	Enzyme activity, % of control at 2 μM	Enzyme activity, % of control at 20 μM	Enzyme activity, % of control at 200 nM (200 nM compound)	IC50 [nM]	inhibition of activity at 200 nM (200 nM compound)
CCOc1ccc(S(=O)(=O)N(O)c2ccc3c(c2)N(C(=O)C2CC2)CCC3)cc1 [Compound 18]	79 % of control	21 % of control	≥100 % of control	–	–
CCNc1ccc(S(=O)(=O)Nc2ccc3c(c2)N(C(=O)C2CC2)CCC3)cc1 [Compound 25]	58 % of control	10 % of control	≥100 % of control	–	–
CCOc1ccc(S(=O)(=O)Nc2ccc3c(c2)N(C(=O)C2CC2)CCCC3)cc1 [Compound 14]	76 % of control	35 % of control	–	–	–
CCOc1ccc(S(=O)(=O)Nc2ccc3c(c2)N(C(=O)CCOC)CCC3)cc1 [Compound 4]	93 % of control	51 % of control	–	–	–
CCOc1ccc(S(=O)(=O)Nc2ccc3c(c2)N(C(=O)C(C)C)CCC3)cc1 [Compound 5]	96 % of control	52 % of control	–	–	–
O=C(C1CC1)N1CCCc2ccc(NS(=O)(=O)c3ccc(-c4cccnc4)cc3)cc21 [Compound 34]	23 ± 1.5 % of control	2.0 % of control	61 ± 1.3 % of control	270	ca. 40%
NNC(=O)c1sc2cccc(Cl)c2c1Cl [Compound O8, reference compound]	69 % of control	45 % of control	–	–	–
CCOc1ccc(S(=O)(=O)Nc2ccc3c(c2)N(C(=O)C2CC2)CCO3)cc1 [Compound 15]	90 % of control	41 % of control	–	–	–
CCOc1ccc(S(=O)(=O)Nc2ccc3c(c2)N(CC2CC2)CCC3)cc1 [Compound 11]	≥100 % of control	83 % of control	–	–	–
CCC(=O)N1CCCc2ccc(NS(=O)(=O)CC)cc21 [Compound 22]	94 % of control	74 % of control	–	–	–
CCOc1ccc(C(=O)Nc2ccc3c(c2)N(C(=O)C2CC2)CCC3)cc1 [Compound 20]	≥100 % of control	≥100 % of control	–	–	–
CCCc1ccc(S(=O)(=O)Nc2ccc3c(c2)N(C(=O)C2CC2)CCC3)cc1 [Compound 23]	35 % of control	14 % of control	74 % of control	–	–
CCOc1ccc(S(=O)(=O)N(C)c2ccc3c(c2)N(C(=O)C2CC2)CCC3)cc1 [Compound 19]	84 % of control	79 % of control	–	–	–
O=C(C1CC1)N1CCCc2ccc(NS(=O)(=O)c3ccc(-c4ccc(C(F)(F)F)cc4)cc3)cc21 [Compound 35]	72 % of control	–	97 % of control	–	–
CCOc1ccc(S(=O)(=O)Nc2ccc3c(c2)CN(C(=O)C2CC2)CC3)cc1 [Compound 17]	94 % of control	88 % of control	–	–	–
CCOc1ccc(S(=O)(=O)Nc2ccc3c(c2)N(S(=O)(=O)CC)CCC3)cc1 [Compound 9]	96 % of control	92 % of control	–	–	–
CCOc1ccc(S(=O)(=O)Nc2ccc3c(c2)N(C(=O)C2CC2)CCC3)cc1C [Compound 27]	71 % of control	22 % of control	–	–	–
COc1ccc(-c2ccc(S(=O)(=O)Nc3ccc4c(c3)N(C(=O)C3CC3)CCC4)cc2)cc1 [Compound 36]	31 % of control	–	79 % of control	–	–
CCOc1ccc(S(=O)(=O)Nc2ccc3c(c2)N(C(=O)Cc2ccccc2)CCC3)cc1 [Compound 3]	≥100 % of control	79 % of control	–	–	–
